The supplement of paper PMC7661543
± gives the standard deviation of the averaged measurements.

Legend:
Assay in all cases: relative cell number vs DMSO control (72 h) (% of DMSO); higher = less growth inhibition (more cells)
Conditions in all cases: sgRNA knockout: sgNT
MDA-MB-231 = system: MDA-MB-231
Description: (§1)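 QMAP-Seq: a pool of 5 breast cancer cell lines (ZR-75-1, SKBR3, HCC-38, MDA-MB-231, BT-20), each carrying 12 doxycycline-inducible Cas9 sgRNA perturbations (11 knockouts plus non-targeting sgNT), was treated with compounds for 72 h at four 10-fold doses (10 nM-10 uM or 1 nM-1 uM range). Barcodes were amplified and sequenced, and cell number was interpolated from 293T spike-in standard curves. The result is expressed as % of the median of DMSO wells. Two biological replicates.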

SKBR3 = system: SKBR3
Description: as §1

HCC-38 = system: HCC-38
Description: as §1

ZR-75-1 = system: ZR-75-1
Description: as §1

BT-20 = system: BT-20
Description: as §1

SMILES | relative cell number (MDA-MB-231; 1 nM) | relative cell number (MDA-MB-231; 10 nM) | relative cell number (MDA-MB-231; 100 nM) | relative cell number (MDA-MB-231; 1000 nM) | relative cell number (SKBR3; 1 nM) | relative cell number (SKBR3; 10 nM) | relative cell number (SKBR3; 100 nM) | relative cell number (SKBR3; 1000 nM) | relative cell number (HCC-38; 1 nM) | relative cell number (HCC-38; 10 nM) | relative cell number (HCC-38; 100 nM) | relative cell number (HCC-38; 1000 nM) | relative cell number (ZR-75-1; 1 nM) | relative cell number (ZR-75-1; 10 nM) | relative cell number (ZR-75-1; 100 nM) | relative cell number (ZR-75-1; 1000 nM) | relative cell number (BT-20; 1 nM) | relative cell number (BT-20; 10 nM) | relative cell number (BT-20; 100 nM) | relative cell number (BT-20; 1000 nM) | relative cell number (MDA-MB-231; 10000 nM) | relative cell number (SKBR3; 10000 nM) | relative cell number (HCC-38; 10000 nM) | relative cell number (ZR-75-1; 10000 nM) | relative cell number (BT-20; 10000 nM)
CN1CCN(c2ccc(C(=O)Nc3n[nH]c4ccc(Cc5cc(F)cc(F)c5)cc34)c(NC3CCOCC3)c2)CC1 [Entrectinib] | 86.7 ± 26 | 101 ± 9.8 | 93.3 ± 6.3 | 105 ± 6.8 | 113 ± 7.7 | 113 ± 3.7 | 82.9 ± 36 | 95 ± 19 | 90.4 ± 11 | 96.6 ± 2.2 | 89.3 ± 23 | 79.1 ± 6.5 | 73.5 ± 22 | 105 ± 44 | 73 ± 13 | 85.7 ± 8.3 | 102 ± 28 | 97.9 ± 13 | 91.6 ± 1.3 | 92.9 ± 5.6 |  |  |  |  | 
CCOc1ccccc1-n1c(C(C)N2CCN(C(=O)COc3ccc(Cl)cc3)CC2)nc2ccccc2c1=O (stereo not given) [Erastin] |  | 90.4 ± 8.9 | 103 ± 30 | 87.6 ± 4.9 |  | 111.3 ± 0.82 | 85.9 ± 42 | 118 ± 53 |  | 97.1 ± 7.7 | 103 ± 9.8 | 99.2 ± 13 |  | 99.6 ± 21 | 89.4 ± 42 | 81.3 ± 20 |  | 122 ± 20 | 84.4 ± 8.1 | 99.8 ± 1.4 | 25.1 ± 4.8 | 46 ± 11 | 60.1 ± 4.2 | 60.6 ± 13 | 40 ± 1.6
C#Cc1cccc(Nc2ncnc3cc(OCCOC)c(OCCOC)cc23)c1 [Erlotinib] |  | 98.8 ± 11 | 83.4 ± 2.6 | 98.4 ± 8.8 |  | 124 ± 20 | 97.3 ± 14 | 79 ± 12 |  | 105 ± 3 | 87.3 ± 9.9 | 99.1 ± 6.6 |  | 99 ± 27 | 63.2 ± 3.8 | 97 ± 18 |  | 103 ± 8.8 | 82.9 ± 2.6 | 81.9 ± 2 | 83.6 ± 2.8 | 43.6 ± 8.1 | 94.8 ± 1.3 | 84.2 ± 26 | 82.9 ± 8.9
CCOC(=O)[C@@]1(CCCCCCOc2ccc(Cl)cc2)CO1 [Etomoxir] |  | 120 ± 25 | 109 ± 1.7 | 114 ± 30 |  | 80.7 ± 22 | 98.3 ± 11 | 86.5 ± 40 |  | 94.85 ± 0.42 | 94.52 ± 0.29 | 107 ± 19 |  | 67.6 ± 37 | 90.7 ± 8.2 | 75.46 ± 0.14 |  | 97.7 ± 1 | 90.3 ± 13 | 122 ± 23 | 92.8 ± 19 | 98.3 ± 36 | 86.4 ± 3.9 | 57.2 ± 7.3 | 107 ± 9.7
COc1cc([C@@H]2c3cc4c(cc3[C@@H](O[C@@H]3O[C@@H]5CO[C@@H](C)O[C@H]5[C@H](O)[C@H]3O)[C@H]3COC(=O)[C@H]23)OCO4)cc(OC)c1O [Etoposide] |  | 81.6 ± 3.5 | 71.7 ± 1.1 | 21.8 ± 1.8 |  | 58 ± 10 | 50.1 ± 4.5 | 31.3 ± 9.5 |  | 75.4 ± 33 | 84.8 ± 13 | 31.6 ± 5.3 |  | 56 ± 2.7 | 54.5 ± 4.6 | 46.8 ± 4.2 |  | 87 ± 6.6 | 83 ± 1.2 | 52.6 ± 0.56 | 11.9 ± 1.1 | 12.6 ± 12 | 20.5 ± 1.8 | 31.5 ± 1.5 | 36 ± 15
CO[C@H]1C[C@@H]2CC[C@@H](C)[C@@](O)(O2)C(=O)C(=O)N2CCCC[C@H]2C(=O)O[C@H]([C@H](C)C[C@@H]2CC[C@@H](OCCO)[C@H](OC)C2)CC(=O)[C@H](C)/C=C(\C)[C@@H](O)[C@@H](OC)C(=O)[C@H](C)C[C@H](C)/C=C/C=C/C=C/1C [Everolimus] | 76.3 ± 15 | 50.9 ± 14 | 87.5 ± 11 | 88.3 ± 6.2 | 55.6 ± 18 | 67.6 ± 1.8 | 57.5 ± 21 | 70.7 ± 0.84 | 56.5 ± 4.8 | 59.2 ± 2.3 | 64.7 ± 2.1 | 59.7 ± 3.3 | 69.7 ± 18 | 66.8 ± 8.4 | 58 ± 11 | 42.7 ± 18 | 56 ± 3.1 | 63.7 ± 4.2 | 49.5 ± 6.8 | 71.5 ± 5.7 |  |  |  |  | 
